{"source": "patent US9708336B2", "about": "“Metallo-beta-lactamase inhibitors” (priority 2014, dated 2017)", "key": {"[1]": {"target": "NDM-1 (Klebsiella pneumoniae, UniProt C7C422)", "sequence (C7C422 whole entry, looked up, species assumed)": "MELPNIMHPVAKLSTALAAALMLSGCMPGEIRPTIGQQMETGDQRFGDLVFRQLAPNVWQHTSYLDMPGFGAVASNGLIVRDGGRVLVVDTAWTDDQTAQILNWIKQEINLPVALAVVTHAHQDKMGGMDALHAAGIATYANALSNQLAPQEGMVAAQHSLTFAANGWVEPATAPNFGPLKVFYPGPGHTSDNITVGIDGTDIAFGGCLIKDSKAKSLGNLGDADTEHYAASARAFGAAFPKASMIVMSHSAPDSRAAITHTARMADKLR", "assay": "biochemical", "assay_type": "biochemical"}, "[2]": {"target": "IMP-1 (Serratia marcescens, UniProt P52699)", "sequence (P52699 whole entry, looked up)": "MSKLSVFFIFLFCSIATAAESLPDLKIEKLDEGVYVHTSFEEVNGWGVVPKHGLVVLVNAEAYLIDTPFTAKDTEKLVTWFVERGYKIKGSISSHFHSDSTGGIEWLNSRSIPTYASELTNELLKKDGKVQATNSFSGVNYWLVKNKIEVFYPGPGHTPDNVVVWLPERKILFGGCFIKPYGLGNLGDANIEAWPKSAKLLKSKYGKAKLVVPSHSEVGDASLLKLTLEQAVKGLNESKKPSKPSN", "assay": "biochemical", "assay_type": "biochemical"}, "[3]": {"target": "VIM-1 (Pseudomonas aeruginosa (strain ATCC 15692 / DSM 22644 / CIP 104116 / JCM 14847 / LMG 12228 / 1C / PRS 101 / PAO1), UniProt A0A0F7KYQ8)", "assay": "Enzyme activity: determination of IC50, fluorescence assay with CCF2-FA substrate (VIM-1)", "assay_type": "biochemical"}, "[4]": {"tested_on": "Escherichia coli expressing NDM-1 (CLB30005)", "assay": "Antibiotic potentiation activity: synergistic concentration (MITC95) with imipenem, OD600 growth", "assay_type": "cell-based", "conditions": "for Escherichia coli MITC95: Escherichia coli expressing NDM-1 (CLB30005), 95% growth inhibition; for Escherichia coli expressing NDM-1 (CLB 30005) MITC95: concentration giving 95% inhibition of bacterial growth", "in_short": "(§1)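 Inoculum: saline suspension of overnight colonies, 1:100 into 1.1× CAMHB. Imipenem 4 μg/ml final (alt. 1 μg/ml) + compound; 35 °C, 22–24 h; absorbance read-out.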"}, "[5]": {"tested_on": "Klebsiella pneumoniae expressing VIM-1 (IHMA599644)", "assay": "Antibiotic potentiation activity: synergistic concentration (MITC95) with imipenem, OD600 growth", "assay_type": "cell-based", "conditions": "for Klebsiella pneumoniae MITC95: Klebsiella pneumoniae expressing VIM-1 (IHMA599644), 95% growth inhibition; for Klebsiella pneumoniae expressing VIM-1 (IHMA 599644) MITC95: concentration giving 95% inhibition of bacterial growth", "in_short": "as §1"}, "[6]": {"tested_on": "Serratia marcescens expressing IMP-1 (CL5741)", "assay": "Antibiotic potentiation activity: synergistic concentration (MITC95) with imipenem, OD600 growth", "assay_type": "cell-based", "conditions": "for Serratia marcescens MITC95: Serratia marcescens expressing IMP-1 (CL5741), 95% growth inhibition; for Serratia marcescens expressing IMP-1 (CL5741) MITC95: concentration giving 95% inhibition of bacterial growth", "in_short": "as §1"}, "[7]": {"conditions": "NDM-1 enzyme, CCF2-FA fluorescence assay, read-out: NDM-1 IC50"}, "[8]": {"conditions": "IMP-1 enzyme, CCF2-FA fluorescence assay, read-out: IMP-1 IC50"}, "[9]": {"conditions": "VIM-1 enzyme, CCF2-FA fluorescence assay, read-out: VIM-1 IC50"}, "[10]": {"conditions": "fluorescence assay with CCF2-FA substrate, read-out: NDM-1 IC50"}, "[11]": {"conditions": "fluorescence assay with CCF2-FA substrate, read-out: IMP-1 IC50"}, "[12]": {"conditions": "fluorescence assay with CCF2-FA substrate, read-out: VIM-1 IC50"}}, "note": "Where two headings read alike, the source gives them in different places."}
{"smiles": "NS(=O)(=O)c1cccc(-c2ccc(N3CCOCC3)nc2)c1-c1nn[nH]n1", "note": "[Example 323, 3-(6-morpholinopyridin-3-yl)-2-(2H-tetrazol-5-yl)benzenesulfonamide]", "values": [{"measurement": "IC50", "setting": "[1]; [7]", "value": 7.69, "unit": "nM"}, {"measurement": "IC50", "setting": "[2]; [8]", "value": 70.6, "unit": "nM"}, {"measurement": "IC50", "setting": "[3]; [9]", "value": 151, "unit": "nM"}, {"measurement": "Escherichia coli MITC95", "setting": "[4]", "value": 2.344, "unit": "µM"}, {"measurement": "Klebsiella pneumoniae MITC95", "setting": "[5]", "value": 200, "unit": "µM"}, {"measurement": "Serratia marcescens MITC95", "setting": "[6]", "value": 12.5, "unit": "µM"}]}
{"smiles": "NC(=O)c1cccc(-c2ccnc(S(N)(=O)=O)c2-c2nn[nH]n2)c1", "note": "[Example 204, 3-(2-sulfamoyl-3-(2H-tetrazol-5-yl)pyridin-4-yl)benzamide]", "values": [{"measurement": "IC50", "setting": "[1]; [10]", "value": 59, "unit": "nM"}, {"measurement": "IC50", "setting": "[2]; [11]", "value": 2860, "unit": "nM"}, {"measurement": "IC50", "setting": "[3]; [12]", "value": 238, "unit": "nM"}, {"measurement": "Escherichia coli expressing NDM-1 (CLB 30005) MITC95", "setting": "[4]", "value": 0.3906, "unit": "µM"}, {"measurement": "Klebsiella pneumoniae expressing VIM-1 (IHMA 599644) MITC95", "setting": "[5]", "value": 12.5, "unit": "µM"}, {"measurement": "Serratia marcescens expressing IMP-1 (CL5741) MITC95", "setting": "[6]", "value": 37.5, "unit": "µM"}]}
{"smiles": "Cc1ccccc1-c1cccc(S(N)(=O)=O)c1-c1nn[nH]n1", "note": "[Example 325, 2′-methyl-2-(2H-tetrazol-5-yl)-[1,1′-biphenyl]-3-sulfonamide]", "values": [{"measurement": "IC50", "setting": "[1]; [7]", "value": 1.3, "unit": "nM"}, {"measurement": "IC50", "setting": "[2]; [8]", "value": 228, "unit": "nM"}, {"measurement": "IC50", "setting": "[3]; [9]", "value": 13.1, "unit": "nM"}, {"measurement": "Escherichia coli MITC95", "setting": "[4]", "value": 3.125, "unit": "µM"}, {"measurement": "Klebsiella pneumoniae MITC95", "setting": "[5]", "value": 37.5, "unit": "µM"}, {"measurement": "Serratia marcescens MITC95", "setting": "[6]", "value": 25, "unit": "µM"}]}
{"smiles": "NS(=O)(=O)c1cccc(-c2ccc(N3CCOCC3)cc2)c1-c1nn[nH]n1", "note": "[Example 12]", "values": [{"measurement": "IC50", "setting": "[1]; [10]", "value": 3.47, "unit": "nM"}, {"measurement": "IC50", "setting": "[2]; [11]", "value": 41.8, "unit": "nM"}, {"measurement": "IC50", "setting": "[3]; [12]", "value": 95.7, "unit": "nM"}, {"measurement": "Escherichia coli expressing NDM-1 (CLB 30005) MITC95", "setting": "[4]", "value": 3.125, "unit": "µM"}, {"measurement": "Klebsiella pneumoniae expressing VIM-1 (IHMA 599644) MITC95", "setting": "[5]", "value": 200, "unit": "µM"}, {"measurement": "Serratia marcescens expressing IMP-1 (CL5741) MITC95", "setting": "[6]", "value": 6.25, "unit": "µM"}]}
{"smiles": "CC(CO)Oc1ccc(-c2cccc(S(N)(=O)=O)c2-c2nn[nH]n2)cc1", "note": "(stereo not drawn) [Example 6, 4′-(2-hydroxy-1-methylethoxy)-2-(2H-tetrazol-5-yl)biphenyl-3-sulfonamide]", "values": [{"measurement": "IC50", "setting": "[1]", "value": 1.96, "unit": "nM"}, {"measurement": "IC50", "setting": "[2]", "value": 39.6, "unit": "nM"}, {"measurement": "IC50", "setting": "[3]; [12]", "value": 42.3, "unit": "nM"}, {"measurement": "Escherichia coli expressing NDM-1 (CLB 30005) MITC95", "setting": "[4]", "value": 1.563, "unit": "µM"}, {"measurement": "Klebsiella pneumoniae expressing VIM-1 (IHMA 599644) MITC95", "setting": "[5]", "value": ">200", "unit": "µM"}, {"measurement": "Serratia marcescens expressing IMP-1 (CL5741) MITC95", "setting": "[6]", "value": 50, "unit": "µM"}]}
{"smiles": "Cc1ccc(-c2cc(-c3ccc4c(c3)CNC4)cc(S(N)(=O)=O)c2-c2nn[nH]n2)cc1", "note": "[Example 294, 5-(isoindolin-5-yl)-4′-methyl-2-(2H-tetrazol-5-yl)-[1,1′-biphenyl]-3-sulfonamide]", "values": [{"measurement": "IC50", "setting": "[1]; [7]", "value": 0.637, "unit": "nM"}, {"measurement": "IC50", "setting": "[2]; [8]", "value": 29.4, "unit": "nM"}, {"measurement": "IC50", "setting": "[3]; VIM-1 IC50, VIM-1 enzyme, CCF2-FA fluorescence assay", "value": 193, "unit": "nM"}, {"measurement": "Escherichia coli MITC95", "setting": "[4]", "value": 0.3802, "unit": "µM"}, {"measurement": "Klebsiella pneumoniae MITC95", "setting": "[5]", "value": 37.5, "unit": "µM"}, {"measurement": "Serratia marcescens MITC95", "setting": "[6]", "value": 0.6406, "unit": "µM"}]}
{"smiles": "NS(=O)(=O)c1cccc(-c2ccc(C(O)C(F)(F)F)cc2)c1-c1nn[nH]n1", "note": "(stereo not drawn) [Example 3, 2(2H-tetrazol-5-yl)4′-(2,2,2-trifluoro-1-hydroxyethyl)biphenyl-3-sulfonamide]", "values": [{"measurement": "IC50", "setting": "[1]; [10]", "value": 1.49, "unit": "nM"}, {"measurement": "IC50", "setting": "[2]; [11]", "value": 8.92, "unit": "nM"}, {"measurement": "IC50", "setting": "[3]; [12]", "value": 39.9, "unit": "nM"}, {"measurement": "Escherichia coli expressing NDM-1 (CLB 30005) MITC95", "setting": "[4]", "value": 0.7813, "unit": "µM"}, {"measurement": "Klebsiella pneumoniae expressing VIM-1 (IHMA 599644) MITC95", "setting": "[5]", "value": 200, "unit": "µM"}, {"measurement": "Serratia marcescens expressing IMP-1 (CL5741) MITC95", "setting": "[6]", "value": 1.563, "unit": "µM"}]}
{"smiles": "NS(=O)(=O)c1cccc(-c2ccc(C(=O)NC3CC3)cc2)c1-c1nn[nH]n1", "note": "[Example 11, N-cyclopropyl-3′-sulfamoyl-2′-(2H-tetrazol-5-yl)biphenyl-4-carboxamide]", "values": [{"measurement": "IC50", "setting": "[1]; [10]", "value": 6.42, "unit": "nM"}, {"measurement": "IC50", "setting": "[2]; [11]", "value": 109, "unit": "nM"}, {"measurement": "IC50", "setting": "[3]; VIM-1 IC50, fluorescence assay with CCF2-FA substrate", "value": 466, "unit": "nM"}, {"measurement": "Escherichia coli expressing NDM-1 (CLB 30005) MITC95", "setting": "[4]", "value": 1.563, "unit": "µM"}, {"measurement": "Klebsiella pneumoniae expressing VIM-1 (IHMA 599644) MITC95", "setting": "[5]", "value": ">200", "unit": "µM"}, {"measurement": "Serratia marcescens expressing IMP-1 (CL5741) MITC95", "setting": "[6]", "value": 12.5, "unit": "µM"}]}
{"smiles": "Nc1ncc(-c2cccc(S(N)(=O)=O)c2-c2nnn[nH]2)cn1", "note": "[Example 301, 3-(2-aminopyrimidin-5-yl)-2-(1H-tetrazol-5-yl)benzenesulfonamide]", "values": [{"measurement": "IC50", "setting": "[1]; [7]", "value": 8.2, "unit": "nM"}, {"measurement": "IC50", "setting": "[2]; [8]", "value": 1380, "unit": "nM"}, {"measurement": "IC50", "setting": "[3]; [9]", "value": 282, "unit": "nM"}, {"measurement": "Escherichia coli MITC95", "setting": "[4]", "value": 0.7813, "unit": "µM"}, {"measurement": "Klebsiella pneumoniae MITC95", "setting": "[5]", "value": 25, "unit": "µM"}, {"measurement": "Serratia marcescens MITC95", "setting": "[6]", "value": 37.5, "unit": "µM"}]}
{"smiles": "NS(=O)(=O)c1nccc(-c2ccc(C3CCOCC3)cc2)c1-c1nnn[nH]1", "note": "[Example 187, 4-(4-(Tetrahydro-2H-pyran-4-yl)phenyl)-3-(1H-tetrazol-5-yl)pyridine-2-sulfonamide]", "values": [{"measurement": "IC50", "setting": "[1]; [10]", "value": 2.81, "unit": "nM"}, {"measurement": "IC50", "setting": "[2]; [11]", "value": 28.9, "unit": "nM"}, {"measurement": "IC50", "setting": "[3]; [12]", "value": 150, "unit": "nM"}, {"measurement": "Escherichia coli expressing NDM-1 (CLB 30005) MITC95", "setting": "[4]", "value": 15.63, "unit": "µM"}, {"measurement": "Klebsiella pneumoniae expressing VIM-1 (IHMA 599644) MITC95", "setting": "[5]", "value": ">200", "unit": "µM"}, {"measurement": "Serratia marcescens expressing IMP-1 (CL5741) MITC95", "setting": "[6]", "value": 25, "unit": "µM"}]}
